In article PMC11879040, “Advancing systemic toxicity risk assessment: Evaluation of a NAM-based toolbox approach” (Toxicological Sciences, 2024):
Read-outs that look alike come from different tables or passages of the source.

How the values were obtained:
[1] = biological target: T1, Beta-2 adrenergic receptor, ADRB2 (h) (Homo sapiens, UniProt P07550); assay: IPP ADRB2 binding (antagonist radioligand); conditions: control ICI 118551
T1 construct: purchased Eurofins Cerep (SafetyScreen44-based IPP panel)

[2] = tested on: Potassium Voltage-Gated Channel Kv non-selective, KCNQ1 (r); assay: IPP KCNQ1 binding (antagonist radioligand); set-up: species or system rat
[3] = biological target: T2, Angiotensin II receptor Type-1, AGTR1 (h) (Homo sapiens, UniProt P30556); assay: IPP AGTR1 binding; conditions: ligand/control Saralasin
T2 construct: purchased Eurofins Cerep (SafetyScreen44-based IPP panel)
T2 sequence (P30556 1-359): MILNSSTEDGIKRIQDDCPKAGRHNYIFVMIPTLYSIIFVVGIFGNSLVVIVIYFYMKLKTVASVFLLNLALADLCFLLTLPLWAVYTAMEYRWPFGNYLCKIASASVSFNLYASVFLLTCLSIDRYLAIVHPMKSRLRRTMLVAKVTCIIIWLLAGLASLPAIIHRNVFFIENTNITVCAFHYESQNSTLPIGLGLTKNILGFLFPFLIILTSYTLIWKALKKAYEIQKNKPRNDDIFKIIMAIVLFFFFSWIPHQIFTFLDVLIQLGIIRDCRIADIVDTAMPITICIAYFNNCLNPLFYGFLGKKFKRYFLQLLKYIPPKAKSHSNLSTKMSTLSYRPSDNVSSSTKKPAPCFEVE

[4] = biological target: T3, Monoamine oxidase type A, MAOA (r) (Rattus norvegicus, UniProt P21396); assay: IPP MAOA binding (antagonist radioligand); conditions: IPP screening at 10 uM; control clorgyline
T3 sequence (P21396 1-526): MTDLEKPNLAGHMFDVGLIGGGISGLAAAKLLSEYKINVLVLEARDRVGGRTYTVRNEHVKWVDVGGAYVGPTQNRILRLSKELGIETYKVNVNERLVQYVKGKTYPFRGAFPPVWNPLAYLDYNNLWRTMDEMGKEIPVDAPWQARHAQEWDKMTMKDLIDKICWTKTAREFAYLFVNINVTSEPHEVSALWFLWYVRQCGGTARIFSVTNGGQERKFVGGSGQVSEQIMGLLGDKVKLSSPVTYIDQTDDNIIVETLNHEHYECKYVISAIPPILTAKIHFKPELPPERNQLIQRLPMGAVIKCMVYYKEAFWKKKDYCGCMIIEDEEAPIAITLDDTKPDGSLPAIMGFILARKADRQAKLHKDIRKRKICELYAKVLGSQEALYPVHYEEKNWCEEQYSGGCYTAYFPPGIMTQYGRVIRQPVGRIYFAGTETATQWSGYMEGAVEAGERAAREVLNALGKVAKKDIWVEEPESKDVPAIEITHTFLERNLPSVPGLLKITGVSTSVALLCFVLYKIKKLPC

[5] = tested on: 63 targets with known safety liabilities; assay: In vitro pharmacological profiling (IPP) panel, screening at 10 or 100 µM and dose response, minimum IC50/AC50; format: biochemical; conditions: lowest AC50 across IPP panel (systemic targets); cell_type -; read-out: ipp_lowest_ac50_systemic PoD
[6] = biological target: T4, Alpha-1A adrenergic receptor, ADRA1A (h) (Homo sapiens, UniProt P35348); conditions: control WB 4101
T4 sequence (P35348 1-466): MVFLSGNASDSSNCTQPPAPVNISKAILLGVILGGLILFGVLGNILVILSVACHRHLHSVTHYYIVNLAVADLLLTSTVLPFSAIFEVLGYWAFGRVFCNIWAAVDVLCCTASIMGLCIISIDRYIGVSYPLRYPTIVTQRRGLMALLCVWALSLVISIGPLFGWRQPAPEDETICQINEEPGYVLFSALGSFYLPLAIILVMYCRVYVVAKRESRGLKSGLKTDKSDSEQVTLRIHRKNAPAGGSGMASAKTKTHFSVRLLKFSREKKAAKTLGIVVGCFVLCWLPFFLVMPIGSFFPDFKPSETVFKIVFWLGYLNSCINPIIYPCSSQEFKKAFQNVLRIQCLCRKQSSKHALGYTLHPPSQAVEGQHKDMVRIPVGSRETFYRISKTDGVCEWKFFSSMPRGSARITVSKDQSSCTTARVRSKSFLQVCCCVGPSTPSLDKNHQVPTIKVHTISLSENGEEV

[7] = tested on: Thyroid hormone receptor alpha, THRA (h); assay: IPP THRA coactivator recruitment (agonist); format: biochemical, human
[8] = biological target: Sodium-dependent noradrenaline transporter, SLC6A2 (h) (Homo sapiens, UniProt P23975); conditions: ligand/control protriptyline
Sequence of Sodium-dependent noradrenaline transporter, SLC6A2 (h) (P23975 whole entry): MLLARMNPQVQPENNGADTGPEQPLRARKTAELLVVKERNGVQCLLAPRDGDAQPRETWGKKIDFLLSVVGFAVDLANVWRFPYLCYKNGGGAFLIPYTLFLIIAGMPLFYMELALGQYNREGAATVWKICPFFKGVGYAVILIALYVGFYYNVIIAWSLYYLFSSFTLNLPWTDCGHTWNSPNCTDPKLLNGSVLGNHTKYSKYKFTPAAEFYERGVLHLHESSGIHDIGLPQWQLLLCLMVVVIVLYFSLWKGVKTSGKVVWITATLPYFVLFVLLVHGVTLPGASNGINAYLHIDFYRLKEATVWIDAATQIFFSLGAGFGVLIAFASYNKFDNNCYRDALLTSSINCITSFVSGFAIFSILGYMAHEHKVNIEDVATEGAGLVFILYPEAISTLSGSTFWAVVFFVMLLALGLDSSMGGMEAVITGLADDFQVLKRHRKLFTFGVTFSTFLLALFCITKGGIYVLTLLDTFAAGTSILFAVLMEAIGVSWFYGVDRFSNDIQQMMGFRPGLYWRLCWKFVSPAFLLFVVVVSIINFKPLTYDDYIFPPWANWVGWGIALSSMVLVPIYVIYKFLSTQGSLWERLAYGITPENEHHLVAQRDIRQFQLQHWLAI

[9] = biological target: Sodium-dependent dopamine transporter, SLC6A3 (h) (Homo sapiens, UniProt Q01959); conditions: control BTCP
Sequence of Sodium-dependent dopamine transporter, SLC6A3 (h) (Q01959 whole entry): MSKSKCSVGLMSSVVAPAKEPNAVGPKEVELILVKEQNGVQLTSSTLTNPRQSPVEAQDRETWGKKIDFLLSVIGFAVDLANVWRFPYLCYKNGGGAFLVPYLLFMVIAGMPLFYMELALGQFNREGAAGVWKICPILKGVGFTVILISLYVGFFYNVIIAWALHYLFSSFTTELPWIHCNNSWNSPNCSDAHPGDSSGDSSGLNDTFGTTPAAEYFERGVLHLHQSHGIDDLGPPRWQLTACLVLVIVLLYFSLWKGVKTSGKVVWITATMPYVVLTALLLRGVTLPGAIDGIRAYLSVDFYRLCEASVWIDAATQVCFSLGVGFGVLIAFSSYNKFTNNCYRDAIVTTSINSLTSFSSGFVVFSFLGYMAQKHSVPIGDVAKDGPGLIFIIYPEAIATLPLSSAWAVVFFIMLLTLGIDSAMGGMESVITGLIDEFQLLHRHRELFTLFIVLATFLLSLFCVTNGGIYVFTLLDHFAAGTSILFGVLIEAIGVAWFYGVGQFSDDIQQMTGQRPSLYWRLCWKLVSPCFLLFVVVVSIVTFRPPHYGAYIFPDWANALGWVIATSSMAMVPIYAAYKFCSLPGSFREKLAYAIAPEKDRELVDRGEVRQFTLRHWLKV

[10] = biological target: Dopamine receptor D2, DRD2 (h) (Homo sapiens, UniProt P14416); conditions: control 7-OH-DPAT
Sequence of Dopamine receptor D2, DRD2 (h) (P14416 whole entry): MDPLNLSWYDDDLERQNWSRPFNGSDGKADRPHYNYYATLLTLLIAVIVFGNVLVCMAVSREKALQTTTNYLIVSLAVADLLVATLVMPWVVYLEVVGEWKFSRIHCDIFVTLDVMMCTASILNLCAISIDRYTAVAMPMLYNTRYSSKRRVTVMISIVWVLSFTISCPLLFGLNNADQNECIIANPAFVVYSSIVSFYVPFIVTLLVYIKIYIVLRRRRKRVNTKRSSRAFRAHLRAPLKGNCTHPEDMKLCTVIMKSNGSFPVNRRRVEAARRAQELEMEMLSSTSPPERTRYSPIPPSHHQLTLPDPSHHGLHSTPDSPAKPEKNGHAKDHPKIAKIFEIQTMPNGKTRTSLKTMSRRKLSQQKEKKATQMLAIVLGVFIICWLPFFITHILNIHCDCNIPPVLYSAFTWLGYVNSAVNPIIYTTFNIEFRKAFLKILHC

[11] = tested on: Glutamate receptor ionotropic NMDA 1 non-selective, GRIN1 (r)
[12] = biological target: T5, Prostaglandin G/H synthase 2, PTGS2 (h) (Homo sapiens, UniProt P35354); assay: IPP PTGS2 enzymatic activity; format: biochemical; conditions: control NS398
T5 sequence (P35354 18-604): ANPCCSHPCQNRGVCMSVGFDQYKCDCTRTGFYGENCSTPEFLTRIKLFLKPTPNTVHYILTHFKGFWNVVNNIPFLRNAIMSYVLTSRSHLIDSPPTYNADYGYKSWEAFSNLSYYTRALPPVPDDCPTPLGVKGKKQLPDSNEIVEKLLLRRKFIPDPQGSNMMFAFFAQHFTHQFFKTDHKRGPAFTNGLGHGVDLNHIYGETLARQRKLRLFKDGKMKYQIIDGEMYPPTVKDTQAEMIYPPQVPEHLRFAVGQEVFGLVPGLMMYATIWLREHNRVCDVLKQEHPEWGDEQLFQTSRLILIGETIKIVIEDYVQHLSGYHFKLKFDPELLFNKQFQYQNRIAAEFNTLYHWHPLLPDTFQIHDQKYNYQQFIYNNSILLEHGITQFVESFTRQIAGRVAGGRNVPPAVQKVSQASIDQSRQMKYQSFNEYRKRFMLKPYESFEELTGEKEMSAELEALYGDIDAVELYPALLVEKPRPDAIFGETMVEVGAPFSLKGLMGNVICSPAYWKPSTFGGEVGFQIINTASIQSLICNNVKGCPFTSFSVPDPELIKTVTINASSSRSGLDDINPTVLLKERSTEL

[13] = biological target: 5-hydroxytryptamine receptor 1B, HTR1B (h) (Homo sapiens, UniProt P28222); format: binding; conditions: IPP screening at 10 uM; control serotonin
Sequence of 5-hydroxytryptamine receptor 1B, HTR1B (h) (P28222 whole entry): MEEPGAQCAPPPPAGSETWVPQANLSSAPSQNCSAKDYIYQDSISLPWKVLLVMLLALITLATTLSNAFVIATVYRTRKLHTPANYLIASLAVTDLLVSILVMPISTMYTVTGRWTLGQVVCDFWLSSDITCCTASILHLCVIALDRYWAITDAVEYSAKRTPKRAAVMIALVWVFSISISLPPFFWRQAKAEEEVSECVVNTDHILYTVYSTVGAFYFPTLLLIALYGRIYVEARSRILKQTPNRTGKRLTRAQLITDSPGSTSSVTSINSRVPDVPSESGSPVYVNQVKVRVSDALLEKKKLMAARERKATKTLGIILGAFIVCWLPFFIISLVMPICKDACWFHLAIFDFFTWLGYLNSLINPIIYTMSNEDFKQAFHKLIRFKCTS

[14] = IPP screening at 10 uM, control CGS 19755

Compound	Specific binding ([1]; IPP screening at 10 uM)	Specific binding [2]	IPP screening %, Specific binding ([3]; 10 uM)	Specific binding [4]	AC50 [5]	Specific binding ([6]; IPP screening at 10 uM)	IPP screening %, Coactivator recruitment ([7]; 10 uM, agonist, T3)	IPP screening %, Specific binding ([8]; 10 uM)	Specific binding ([9]; IPP screening at 10 uM)	Specific binding ([10]; IPP screening at 10 uM)	Specific binding [11, 14]	Enzymatic activity ([12]; IPP screening at 10 uM)	Specific binding [13]	further results
CCOP(=S)(OCC)Oc1nc(Cl)c(Cl)cc1Cl [Chlorpyrifos, O,O-Diethyl O-(3,5,6-trichloropyridin-2-yl) phosphorothioate]	-2.4%	15.4%	0.5%	3.1%	1850 nM	5.4%	2.0%	63.4%	34.7%	12.6%	0.2%	-4.1%	-20.1%	
CC(C)(C)c1ccc(CCOc2ncnc3ccccc23)cc1 [Fenazaquin, 4-[2-(4-tert-Butylphenyl)ethoxy]quinazoline]	-1.2%		8.6%	8.2%	2860 nM	35.8%	-1.0%	69.3%	65.2%	16.5%	0.6%	0.8%	-2.2%	Specific binding ([2]; IPP screening at 10 uM, control α-dendrotoxin): -1.6%
mixture of 2- and 3-tert-butyl-4-methoxyphenol [Butylated Hydroxyanisole]	0.4%	4.9%	-1.0%	6.7%		20.2%		13.9%	20.6%	-16.2%		62.4%	0.6%	IPP screening %, Coactivator recruitment [7]: 3.0%; Specific binding [11]: 2.2%
CC1(C)O[C@@H]2[C@@H](CO[C@@]3(COS(N)(=O)=O)OC(C)(C)O[C@@H]23)O1 [Topiramate, [(3aS,5aR,8aR,8bS)-2,2,7,7-Tetramethyltetrahydro-2H,3aH,7H-bis[1,3]dioxolo[4,5-b:4',5'-d]pyran-3a-yl]methyl sulfamate (non-preferred name)]					160 nM									Specific binding ([1]; IPP screening at 100 uM): 3.5%; Specific binding ([2]; IPP screening at 100 uM, control α-dendrotoxin): -2.7%; IPP screening %, Specific binding ([3]; 100 uM): -7.3%; Specific binding ([6]; IPP screening at 100 uM): 2.2%; IPP screening %, Coactivator recruitment ([7]; 100 uM, agonist, T3, * denotes assay interference (2-Amino-6-chloro-4-nitrophenol, HC Red 3)): 0.0%; IPP screening %, Specific binding ([8]; 100 uM): 5.7%; Specific binding ([9]; IPP screening at 100 uM): 0.1%; Specific binding ([10]; IPP screening at 100 uM): 13.3%; Specific binding ([11]; IPP screening at 100 uM, control CGS 19755): -5.1%; Enzymatic activity ([12]; IPP screening at 100 uM): 4.1%
(4S,4aR,5S,5aR,6S,12aS)-4-(Dimethylamino)-3,5,6,10,12,12a-hexahydroxy-6-methyl-1,11-dioxo-1,4,4a,5,5a,6,11,12a-octahydrotetracene-2-carboxamide--hydrogen chloride (1/1) [Oxytetracycline hydrochloride]	0.6%	-19.0%	-8.1%	0.8%		6.2%	1.0%	-8.5%	-0.9%	22.7%	2.8%	14.5%	-8.9%	
